Assay [1] has as its target T1, OSTα-OSTβ (organic solute transporter, OSTα subunit) (Homo sapiens, UniProt Q86UW1+Q86UW2).
T1 sequence (Q86UW1 1-340): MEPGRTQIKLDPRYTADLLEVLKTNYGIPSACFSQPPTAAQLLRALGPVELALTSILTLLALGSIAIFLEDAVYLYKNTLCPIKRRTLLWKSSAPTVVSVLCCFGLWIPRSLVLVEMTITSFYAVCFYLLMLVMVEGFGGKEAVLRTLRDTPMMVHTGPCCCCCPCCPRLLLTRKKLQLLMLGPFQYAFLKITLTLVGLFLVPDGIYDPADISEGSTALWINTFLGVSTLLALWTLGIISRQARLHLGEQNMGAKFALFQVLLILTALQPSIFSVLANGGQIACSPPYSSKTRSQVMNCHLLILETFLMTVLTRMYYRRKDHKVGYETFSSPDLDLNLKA
T1 sequence (Q86UW2 1-128): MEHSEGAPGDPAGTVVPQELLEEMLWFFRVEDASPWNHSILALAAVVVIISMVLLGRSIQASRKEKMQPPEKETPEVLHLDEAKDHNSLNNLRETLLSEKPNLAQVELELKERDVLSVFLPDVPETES
The note with it: read-out: % inhibition at 500 μM.

In assay [2] the target is T2, Ostα-Ostβ (organic solute transporter, Ostα subunit) (Mus musculus, UniProt Q80WK2+Q8R000).
T2 sequence (Q8R000 1-340): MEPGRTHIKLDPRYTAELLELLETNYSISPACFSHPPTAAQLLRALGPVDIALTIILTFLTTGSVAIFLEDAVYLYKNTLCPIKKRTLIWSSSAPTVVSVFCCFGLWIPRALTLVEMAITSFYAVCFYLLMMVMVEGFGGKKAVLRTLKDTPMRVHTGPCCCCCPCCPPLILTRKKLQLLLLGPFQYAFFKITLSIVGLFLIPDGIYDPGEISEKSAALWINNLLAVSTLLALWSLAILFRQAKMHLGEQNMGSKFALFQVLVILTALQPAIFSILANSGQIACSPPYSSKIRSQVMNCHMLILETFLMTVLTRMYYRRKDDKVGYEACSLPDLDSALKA
T2 sequence (Q80WK2 1-128): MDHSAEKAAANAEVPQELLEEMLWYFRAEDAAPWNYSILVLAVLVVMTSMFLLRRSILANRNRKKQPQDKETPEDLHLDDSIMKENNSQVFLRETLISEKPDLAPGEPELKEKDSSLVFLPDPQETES
The note with it: read-out: % inhibition at 500 μM.

Structures are written as SMILES. Structures can show the parent of a compound that is named as a salt.

One may read the inhibition as the percentage by which the read-out fell short of the control. As for `C[C@]12CC[C@@H](OS(=O)(=O)O)C[C@@H]1CC[C@@H]1[C@@H]2CC[C@]2(C)C(=O)CC[C@@H]12` [Androsterone sulfate], the inhibition at 500 µM in assay [1] and in assay [2] was ~65% throughout.
For `CC(=O)[C@H]1CC[C@H]2[C@@H]3CC=C4C[C@@H](OS(=O)(=O)O)CC[C@]4(C)[C@H]3CC[C@]12C` [PREGS, pregnenolone sulfate], the inhibition at 500 µM in assay [2] is ~65%.

The values are drawn from publication PMC2939961 (Journal of neurochemistry, 2010).
